Data: US5672707A (priority 1991, dated 1997)
Entries after “also recorded” stand apart in the source; their conditions may differ.

How the values were obtained:
mice [1] = assay: Psychotropic activity test: arecoline induced hyperkynesis; assay type: in vivo; conditions: intraperitoneally, dose 1/20 of LD
in vivo = conditions: intraperitoneal injection, Table 5; for LD50: in vivo, ip, read-out: LD50 (mg/kg) by Kerber
Experimental: (§1) Psychoneurotropic activity of the declared compounds and their influence on learning and memory were observed using unbred male (18-20 g) mice and 180-200 g) rats, held at standard conditions (room temperature 21°-22° C., 12-hours lighting schedule, food and water ad libitum).
Acute toxicity was studied by the method of Kerber with intra peritoneal drug injection.

rat adipocytes [2] = assay: Lipid composition of adipocytes after incubation with compounds; assay type: cell-based; conditions: for FFA/TG in adipocytes / PL/CL in adipocytes / PL/TG in adipocytes: cells, Table 11; for FFAc/FFAm / PLc/PLm: distribution between cells and incubation medium, Table 13
Experimental: (§2) Lipid regulative activity of the declared compounds--derivatives of 9-amino acridine--were evaluated in vitro[…] using rat adipocytes. Adipocytes were separated from adipose tissue of testis appendages of adult male rats. Lipid composition analysis was performed by the method of thin-layer chromatography.
(§3) Quantitative analysis of phospholipids (PL), mono- and diacylglycerides (MDG), triacylglycerides (TG), free fatty acids (FFA), free cholesterol (FCL), and methyl esters of fatty acids (MEFA) was performed by the method of spectrophotometry.

mice [3] = assay: Psychotropic activity test: motor activity; assay type: in vivo; conditions: intraperitoneally, dose 1/20 of LD
rat adipocytes [4] = assay: Lipid content in incubation medium after incubation of adipocytes; assay type: cell-based; conditions: incubation medium; Table 12
Experimental: as §2, §3

rats = assay: Passive avoidance test in normal rats, 50% acquisition; assay type: in vivo; conditions: for Increase of the number of correct trails (% to control). Passive avoidance test (rats) / change in vivo at 0.1 mg/kg: 0.1 mg/kg i.p. 20 min before training, piracetam 250 mg/kg 60 min before training, rats; for change in vivo at 0.1 mg/kg: Rattus norvegicus, ip, 20 min, read-out: Increase of the number of correct trails (% to control). Passive avoidance test (rats); for Performance of normal rats in passive avoidance test / Improving learning and memory compared with amiridine and piracetam: normal rats; for Improving learning and memory compared with amiridine and piracetam: passive avoidance test
Experimental: as §1
The influence of drugs on reflex conditioning in rats was studied by the passive avoidance test in conditions of 50% acquisition. The effect of the compound was estimated by the increase of the relative number of learned animals with respect to that of control group. […] The other reference drug--noothropic agent piracetam--was given in the dose 250 mg/kg 60 min before training. Amnestic syndrome was stimulated by 20 days application of Sc at the daily dose of 1 mg/kg intraperitoneally. […] The passive avoidance test was performed within 24 hours after the last application of test preparations.

[5] = molecular target: T1, Acetylcholinesterase, enzyme from human erythrocytes (Homo sapiens, UniProt P22303); assay: Acetylcholinesterase inhibition, spectrophotometric technique of Ellman; assay type: biochemical; conditions: for IC50: Acetylcholinesterase inhibition IC50 (M)
T1 construct: on the enzyme from human erythrocytes; from tissue; host or cells: human erythrocytes
T1 sequence (P22303-2 with tags, fused parts or gaps limits assumed): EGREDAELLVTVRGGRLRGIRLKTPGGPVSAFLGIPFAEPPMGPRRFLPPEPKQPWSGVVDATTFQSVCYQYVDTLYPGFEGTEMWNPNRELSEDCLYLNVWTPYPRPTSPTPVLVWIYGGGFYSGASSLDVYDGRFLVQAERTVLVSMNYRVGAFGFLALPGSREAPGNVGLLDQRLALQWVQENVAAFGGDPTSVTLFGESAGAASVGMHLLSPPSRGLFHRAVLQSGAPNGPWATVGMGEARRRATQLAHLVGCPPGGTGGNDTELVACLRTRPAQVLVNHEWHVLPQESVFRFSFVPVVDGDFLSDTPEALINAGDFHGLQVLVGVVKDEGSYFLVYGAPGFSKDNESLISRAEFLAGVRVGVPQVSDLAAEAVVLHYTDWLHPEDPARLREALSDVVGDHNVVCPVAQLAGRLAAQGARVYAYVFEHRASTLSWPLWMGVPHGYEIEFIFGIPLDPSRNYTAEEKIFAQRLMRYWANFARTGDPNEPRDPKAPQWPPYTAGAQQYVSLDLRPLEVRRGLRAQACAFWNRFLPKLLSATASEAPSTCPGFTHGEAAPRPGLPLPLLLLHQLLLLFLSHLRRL
Experimental: Acetylcholinesterase inhibition under the action of preparations was assessed by the spectrophotometric technique of Ellman on the enzyme from human erythrocytes.

K channels = assay: Ionic permeabilities of excitable membranes, voltage clamp in the Ranvier node; assay type: cell-based, frog; conditions: for Block of K-channels IC (M): Ranvier node of the frog, voltage clamp
mice [6] = assay: Step-down test, scopolamine induced amnesia; assay type: in vivo
Experimental: as §1

[7] = enzyme from human erythrocytes, Table 5

Row | SMILES | Increase of duration of arecoline induced hyperkynesis (% to control) (mice [1]) | Motor activity increment (% to control) (mice [3]) | IC50 [5, 7] [M] | Antiamnestic activity in Step-down test (% of mice with latency > cut off) (mice [6]) | LD50 (in vivo) [mg/kg] | change in vivo at 0.1 mg/kg (rats) [%] | other results
1 | CC1(C)C=Cc2c(nc3ccccc3c2NCc2ccccc2)C1 [VIIl] | 15 % to control | 10 % to control |  |  |  |  | LD50 (mg/kg) by Kerber (in vivo): 116.7 ± 10.9 mg/kg; FFA/TG in adipocytes (rat adipocytes [2]): 1.00; PL/CL in adipocytes (rat adipocytes [2]): 0.75; PL/TG in adipocytes (rat adipocytes [2]): 0.78; FFAc/FFAm (rat adipocytes [2]): 0.96; PLc/PLm (rat adipocytes [2]): 0.97; FFA/TG in incubation medium (rat adipocytes [4]): 1.00; PL/CL in incubation medium (rat adipocytes [4]): 0.91; PL/TG in incubation medium (rat adipocytes [4]): 0.77; Increase of the number of correct trails (% to control). Passive avoidance test (rats) (rats): 40 % to control
2 | CC1(C)C=Cc2c(nc3ccccc3c2NCc2ccccc2)C1 [VIIk] | 20 % to control | 20 % to control |  |  |  |  | LD50 (mg/kg) by Kerber (in vivo): 90.5 ± 8. mg/kg; FFA/TG in adipocytes (rat adipocytes [2]): 0.93; PL/CL in adipocytes (rat adipocytes [2]): 0.61; PL/TG in adipocytes (rat adipocytes [2]): 0.58; FFAc/FFAm (rat adipocytes [2]): 0.95; PLc/PLm (rat adipocytes [2]): 0.78; FFA/TG in incubation medium (rat adipocytes [4]): 1.10; PL/CL in incubation medium (rat adipocytes [4]): 0.96; PL/TG in incubation medium (rat adipocytes [4]): 0.84; Increase of the number of correct trails (% to control). Passive avoidance test (rats) (rats): 25 % to control
3 | Cc1ccc(CNc2c3c(nc4ccccc24)CC(C)(C)CC3O)c(C)c1 (stereo not drawn) [VIi] | 46 % to control | 13 % to control | 1e-06 | 0 % of mice |  |  | LD50 (mg/kg) by Kerber (in vivo): 75.0 ± 1.2 mg/kg; The shift of activation region of K channels: substance lowest concentrations in M producing measureable shift of 1-2 mV (K channels): no effect; Increase of the number of correct trails (% to control). Passive avoidance test (rats) (rats): 15 % to control
4 | CC1(C)C=Cc2c(nc3ccccc3c2N)C1 [VIIb] | 25 % to control | 41 % to control | 7.5e-08 | 25 % of mice | 37.5 ± 0.9 | 40 | Block of K-channels IC (M) (K channels): no effect; Antiamnestic activity in Step-down test (mice [6]): pronounced antiatonestic activity, comparable with that of amiridine and tacrine; Performance of normal rats in passive avoidance test (rats): statistically significantly improved performance of normal rats
5 | CC1(C)Cc2nc3ccccc3c(N)c2C(O)C1 (stereo not drawn) [VIb] | 66 % to control | 40 % to control | 1.2e-06 | 0 % of mice | 63.3 ± 8.8 | 20 | 
6 | CC1(C)C=Cc2c(nc3ccccc3c2NCc2ccc(Cl)cc2)C1 [VIId] | 15 % to control | 28 % to control | 6e-09 | 20 % of mice | 126 ± 8.9 | 60 | Change of lipid composition in adipocytes (rat adipocytes [2]): significaut lipolytic effect; also recorded: significant lipolytic effect; Lipid-regulative effect compared with probucol (rat adipocytes [2]): not inferior; Potency of effect on lipid composition of adipocytes (rat adipocytes [2]): most potent effect on lipid composition of adipocytes; FFA/TG in adipocytes (rat adipocytes [2]): 1.16; PL/CL in adipocytes (rat adipocytes [2]): 0.69; PL/TG in adipocytes (rat adipocytes [2]): 0.73; FFAc/FFAm (rat adipocytes [2]): 1.07; PLc/PLm (rat adipocytes [2]): 0.97; FFA/TG in incubation medium (rat adipocytes [4]): 0.96; PL/CL in incubation medium (rat adipocytes [4]): 0.75; PL/TG in incubation medium (rat adipocytes [4]): 0.67; Performance of normal rats in passive avoidance test (rats): statistically significantly improved performance of normal rats; Improving learning and memory compared with amiridine and piracetam (rats): as effective in improving learning and memory as amiridine and piracetam
7 | CC1(C)C=Cc2c(nc3ccccc3c2NCc2ccccc2)C1 [VIIj] |  |  |  |  |  |  | FFA/TG in adipocytes (rat adipocytes [2]): 1.00; PL/CL in adipocytes (rat adipocytes [2]): 0.83; PL/TG in adipocytes (rat adipocytes [2]): 0.86; FFAc/FFAm (rat adipocytes [2]): 0.93; PLc/PLm (rat adipocytes [2]): 1.08; FFA/TG in incubation medium (rat adipocytes [4]): 1.07; PL/CL in incubation medium (rat adipocytes [4]): 0.89; PL/TG in incubation medium (rat adipocytes [4]): 0.81
8 | Cc1cccc2c(N)c3c(nc12)CC(C)(C)CC3=O [IVl] | 0 % to control | 57 % to control | 6.3e-07 |  | 617 ± 23.7 | 0 | 
9 | CC1(C)CC(=O)c2c(nc3ccccc3c2N)C1 [IVb] | 33 % to control | 0 % to control | 3.5e-06 | 0 % of mice | 70 ± 4.3 | 30 | The shift of activation region of K channels: substance lowest concentrations in M producing measureable shift of 1-2 mV (K channels): no effect; Block of K-channels IC (M) (K channels): no effect
10 | CC1(C)C=Cc2c(nc3ccccc3c2NCc2ccccc2)C1 [VIIi] | 15 % to control | 20 % to control |  | 25 % of mice |  |  | LD50 (mg/kg) by Kerber (in vivo): 500 mg/kg; Antiamnestic activity in Step-down test (mice [6]): pronounced antiatonestic activity, comparable with that of amiridine and tacrine; Performance of normal rats in passive avoidance test (rats): statistically significantly improved performance of normal rats; Increase of the number of correct trails (% to control). Passive avoidance test (rats) (rats): 35 % to control
11 | CCNc1c2c(nc3ccccc13)CC(C)(C)CC2=O [Vj] | 20 % to control | 59 % to control | 1.7e-06 |  | 73.3 ± 8.6 | 0 | 
12 | CC1(C)CC(=O)c2c(nc3ccccc3c2NCc2ccccc2)C1 [Vb] | 15 % to control | 80 % to control |  | 0 % of mice | 735 ± 21.8 | 25 | AChE inhibition IC (M) ([5]; Table 6): no effect; Acetylcholinesterase inhibition IC50 (M) [5, 7]: no effect; The shift of activation region of K channels: substance lowest concentrations in M producing measureable shift of 1-2 mV (K channels): no effect
13 | CC(C)CNc1c2c(nc3ccccc13)CC(C)(C)CC2=O [Vq] | 0 % to control | 75 % to control | 2e-06 |  | 158 ± 21.9 | 0 | 
14 | Cc1ccc(C)c2c(N)c3c(nc12)CC(C)(C)CC3=O [IVf] | 0 % to control | 0 % to control | 1.3e-05 |  | 40 ± 1.2 | 0 | Performance of normal rats in passive avoidance test (rats): statistically significantly improved performance of normal rats
15 | Cc1ccc(CNc2c3c(nc4ccccc24)CC(C)(C)CC3=O)c(C)c1 [Vd] | 0 % to control | 90 % to control | 1e-05 | 20 % of mice | > 1000 | 50 | Performance of normal rats in passive avoidance test (rats): statistically significantly improved performance of normal rats; Improving learning and memory compared with amiridine and piracetam (rats): as effective in improving learning and memory as amiridine and piracetam
16 | CCN(CC)CCNc1c2c(nc3ccccc13)CC(C)(C)CC2=O [Vr] | 26 % to control | 0 % to control | 5e-05 |  | 135 ± 8.2 | 0 | 
17 | CCCCNc1c2c(nc3ccccc13)CC(C)(C)CC2=O [Vaa] | 25 % to control | 26 % to control |  | 25 % of mice |  |  | LD50 (mg/kg) by Kerber (in vivo): 650.0 ± 11.3 mg/kg; Antiamnestic activity in Step-down test (mice [6]): pronounced antiatonestic activity, comparable with that of amiridine and tacrine; FFA/TG in adipocytes (rat adipocytes [2]): 0.94; PL/CL in adipocytes (rat adipocytes [2]): 0.63; PL/TG in adipocytes (rat adipocytes [2]): 0.58; FFAc/FFAm (rat adipocytes [2]): 1.01; PLc/PLm (rat adipocytes [2]): 1.04; FFA/TG in incubation medium (rat adipocytes [4]): 0.92; PL/CL in incubation medium (rat adipocytes [4]): 0.71; PL/TG in incubation medium (rat adipocytes [4]): 0.55; Increase of the number of correct trails (% to control). Passive avoidance test (rats) (rats): 15 % to control
